Drawing on ChEMBL document CHEMBL5465560, “Selectivity Literature for EUbOPEN Chemogenomic Library” (2024), this text covers % of inhibition, % of control and % of activity for nine compounds.

The target of assay [1] is Receptor-interacting serine/threonine-protein kinase 2 (Homo sapiens, UniProt O43353). Description: Selectivity interaction (LanthaScreen Eu Kinase Binding Assay) EUB0001632a RIPK2. As to conditions: at 10 µM.
In assay [2] the target is Dual specificity mitogen-activated protein kinase kinase 1 (Homo sapiens, UniProt Q02750). In words: Selectivity interaction (Rxn Biology Kinase assay) EUB0001632a MAP2K1. To be noted: at 10 µM.
Assay [3] concerns the target Serine/threonine-protein kinase 32B (Homo sapiens) (UniProt Q9NY57). In words: Selectivity interaction (LanthaScreen Eu Kinase Binding Assay) EUB0001632a STK32B. To be noted: at 10 µM. In general terms: In TR-FRET formats the signal depends on donor and acceptor labels being close together.
Assay [4] addresses T1, Dual specificity mitogen-activated protein kinase kinase 4 (Homo sapiens) (UniProt P45985).
T1 sequence (whole entry): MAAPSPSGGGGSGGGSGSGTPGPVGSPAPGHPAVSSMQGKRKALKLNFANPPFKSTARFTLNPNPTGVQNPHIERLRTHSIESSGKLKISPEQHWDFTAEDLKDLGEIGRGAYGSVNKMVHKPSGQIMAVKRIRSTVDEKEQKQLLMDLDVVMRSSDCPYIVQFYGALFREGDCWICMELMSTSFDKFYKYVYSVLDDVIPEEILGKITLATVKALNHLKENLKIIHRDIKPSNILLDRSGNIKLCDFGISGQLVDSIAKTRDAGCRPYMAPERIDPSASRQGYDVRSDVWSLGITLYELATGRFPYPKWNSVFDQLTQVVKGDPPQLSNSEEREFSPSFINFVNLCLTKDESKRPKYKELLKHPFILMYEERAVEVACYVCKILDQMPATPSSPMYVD
To be noted: at 10 µM.

Assay [5] addresses T2, Serine/threonine-protein kinase TBK1 (Homo sapiens) (UniProt Q9UHD2).
T2 sequence (whole entry): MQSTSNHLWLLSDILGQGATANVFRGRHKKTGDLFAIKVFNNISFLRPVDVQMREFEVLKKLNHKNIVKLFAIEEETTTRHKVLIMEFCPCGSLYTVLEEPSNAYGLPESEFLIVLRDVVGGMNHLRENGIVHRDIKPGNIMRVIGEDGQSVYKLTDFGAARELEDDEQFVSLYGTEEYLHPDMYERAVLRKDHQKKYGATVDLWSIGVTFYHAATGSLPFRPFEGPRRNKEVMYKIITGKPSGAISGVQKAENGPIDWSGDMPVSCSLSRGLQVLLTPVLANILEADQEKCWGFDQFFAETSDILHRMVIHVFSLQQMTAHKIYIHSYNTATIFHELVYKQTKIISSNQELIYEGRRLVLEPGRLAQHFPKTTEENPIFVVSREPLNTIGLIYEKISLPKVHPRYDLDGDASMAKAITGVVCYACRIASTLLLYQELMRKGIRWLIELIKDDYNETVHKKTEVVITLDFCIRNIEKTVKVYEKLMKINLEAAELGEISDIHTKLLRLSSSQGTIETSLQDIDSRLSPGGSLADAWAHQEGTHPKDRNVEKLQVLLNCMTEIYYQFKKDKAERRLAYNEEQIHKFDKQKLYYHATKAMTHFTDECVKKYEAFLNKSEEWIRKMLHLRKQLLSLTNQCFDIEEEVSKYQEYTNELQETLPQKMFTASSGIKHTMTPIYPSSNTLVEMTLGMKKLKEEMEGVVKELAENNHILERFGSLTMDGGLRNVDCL
Description: Selectivity interaction (KinomeScan (DiscoverX)) EUB0000666a TBK1. As to conditions: at 10 µM.

The target in assay [6] is Vascular endothelial growth factor receptor 1 (Homo sapiens) (UniProt P17948). In words: Selectivity interaction (Kinase panel (Eurofins)) EUB0001564a FLT1. As to conditions: at 1 µM.
Assay [7] addresses Mitogen-activated protein kinase kinase kinase 11 (Homo sapiens) (UniProt Q16584). Description: Selectivity interaction (ActivX KiNativ screen (kinase selectivity in THP-1 cell lysates)) EUB0000639a MAP3K11. In kind it is subcellular. To be noted: lysate, at 5 µM.
The target of assay [8] is 5'-AMP-activated protein kinase catalytic subunit alpha-1 (Homo sapiens, UniProt Q13131). In words: Selectivity interaction (Kinase panel (Invitrogen)) EUB0000639a PRKAA1. To be noted: at 200 nM.
For assay [9], the target named is Dual specificity mitogen-activated protein kinase kinase 2 (Homo sapiens) (UniProt P36507). In words: Selectivity interaction (ActivX KiNativ screen (kinase selectivity in THP-1 cell lysates)) EUB0000639a MAP2K2. It is filed as subcellular. To be noted: lysate, at 0.04 µM.
Chain of Dual specificity mitogen-activated protein kinase kinase 2 (Homo sapiens) (P36507 whole entry): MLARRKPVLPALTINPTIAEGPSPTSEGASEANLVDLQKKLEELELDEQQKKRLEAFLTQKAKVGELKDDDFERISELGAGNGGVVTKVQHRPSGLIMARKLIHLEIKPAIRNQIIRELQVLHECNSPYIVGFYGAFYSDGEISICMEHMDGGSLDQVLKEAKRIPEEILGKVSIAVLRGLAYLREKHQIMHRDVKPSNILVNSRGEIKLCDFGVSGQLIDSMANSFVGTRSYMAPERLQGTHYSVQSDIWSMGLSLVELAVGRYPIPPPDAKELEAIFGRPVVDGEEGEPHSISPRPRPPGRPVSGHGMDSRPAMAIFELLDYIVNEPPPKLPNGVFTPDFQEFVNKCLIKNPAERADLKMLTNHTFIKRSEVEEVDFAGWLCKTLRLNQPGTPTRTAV
The target of assay [10] is Ribosomal protein S6 kinase alpha-4 (Homo sapiens) (UniProt O75676). In words: Selectivity interaction (KinomeScan (DiscoverX)) EUB0001049a RPS6KA4. As to conditions: at 1 µM.
In assay [11] the target is Receptor tyrosine-protein kinase erbB-4 (Homo sapiens, UniProt Q15303). Description: Selectivity interaction (KinomeScan (DiscoverX)) EUB0000045b ERBB4.
Chain of Receptor tyrosine-protein kinase erbB-4 (Q15303 whole entry): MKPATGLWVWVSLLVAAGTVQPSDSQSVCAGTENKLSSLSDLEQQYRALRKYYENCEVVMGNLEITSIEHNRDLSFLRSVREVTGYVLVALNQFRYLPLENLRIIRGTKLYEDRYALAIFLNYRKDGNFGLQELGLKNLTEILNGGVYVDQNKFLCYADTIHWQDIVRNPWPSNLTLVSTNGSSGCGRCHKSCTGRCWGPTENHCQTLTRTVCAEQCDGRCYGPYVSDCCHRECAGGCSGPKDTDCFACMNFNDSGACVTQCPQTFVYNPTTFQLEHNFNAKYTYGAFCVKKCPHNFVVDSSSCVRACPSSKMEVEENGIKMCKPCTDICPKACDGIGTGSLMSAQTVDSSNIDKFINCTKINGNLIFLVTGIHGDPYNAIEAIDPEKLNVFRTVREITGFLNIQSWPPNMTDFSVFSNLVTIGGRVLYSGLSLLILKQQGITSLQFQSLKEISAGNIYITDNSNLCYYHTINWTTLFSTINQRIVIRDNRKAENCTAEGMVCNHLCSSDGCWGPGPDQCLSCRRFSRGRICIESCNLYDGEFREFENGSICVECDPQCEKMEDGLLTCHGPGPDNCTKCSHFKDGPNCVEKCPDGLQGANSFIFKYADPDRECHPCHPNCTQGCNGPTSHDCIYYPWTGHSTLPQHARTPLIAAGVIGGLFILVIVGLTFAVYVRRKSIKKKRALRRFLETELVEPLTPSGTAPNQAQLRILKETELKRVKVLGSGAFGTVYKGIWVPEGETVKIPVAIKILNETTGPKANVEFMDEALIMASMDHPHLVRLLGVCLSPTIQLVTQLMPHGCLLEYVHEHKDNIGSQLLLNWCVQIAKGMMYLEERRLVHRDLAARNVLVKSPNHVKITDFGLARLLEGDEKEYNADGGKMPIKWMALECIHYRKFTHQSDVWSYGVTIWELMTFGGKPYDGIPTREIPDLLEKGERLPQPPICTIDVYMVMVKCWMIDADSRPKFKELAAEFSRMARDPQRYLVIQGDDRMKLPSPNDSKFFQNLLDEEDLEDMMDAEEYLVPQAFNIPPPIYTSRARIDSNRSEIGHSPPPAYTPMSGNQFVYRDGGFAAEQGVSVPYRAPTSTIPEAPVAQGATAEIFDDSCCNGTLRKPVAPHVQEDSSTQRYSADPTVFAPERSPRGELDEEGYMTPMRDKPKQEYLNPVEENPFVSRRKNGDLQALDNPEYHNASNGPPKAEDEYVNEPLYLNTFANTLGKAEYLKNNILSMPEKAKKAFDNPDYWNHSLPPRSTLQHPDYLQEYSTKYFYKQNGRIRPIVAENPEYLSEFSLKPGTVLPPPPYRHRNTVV
The target in assay [12] is Tyrosine-protein kinase Fes/Fps (Homo sapiens) (UniProt P07332). Description: Selectivity interaction (KinomeScan (DiscoverX)) EUB0000595a FES. As to conditions: at 10 µM.
Chain of Tyrosine-protein kinase Fes/Fps (Homo sapiens) (P07332 whole entry): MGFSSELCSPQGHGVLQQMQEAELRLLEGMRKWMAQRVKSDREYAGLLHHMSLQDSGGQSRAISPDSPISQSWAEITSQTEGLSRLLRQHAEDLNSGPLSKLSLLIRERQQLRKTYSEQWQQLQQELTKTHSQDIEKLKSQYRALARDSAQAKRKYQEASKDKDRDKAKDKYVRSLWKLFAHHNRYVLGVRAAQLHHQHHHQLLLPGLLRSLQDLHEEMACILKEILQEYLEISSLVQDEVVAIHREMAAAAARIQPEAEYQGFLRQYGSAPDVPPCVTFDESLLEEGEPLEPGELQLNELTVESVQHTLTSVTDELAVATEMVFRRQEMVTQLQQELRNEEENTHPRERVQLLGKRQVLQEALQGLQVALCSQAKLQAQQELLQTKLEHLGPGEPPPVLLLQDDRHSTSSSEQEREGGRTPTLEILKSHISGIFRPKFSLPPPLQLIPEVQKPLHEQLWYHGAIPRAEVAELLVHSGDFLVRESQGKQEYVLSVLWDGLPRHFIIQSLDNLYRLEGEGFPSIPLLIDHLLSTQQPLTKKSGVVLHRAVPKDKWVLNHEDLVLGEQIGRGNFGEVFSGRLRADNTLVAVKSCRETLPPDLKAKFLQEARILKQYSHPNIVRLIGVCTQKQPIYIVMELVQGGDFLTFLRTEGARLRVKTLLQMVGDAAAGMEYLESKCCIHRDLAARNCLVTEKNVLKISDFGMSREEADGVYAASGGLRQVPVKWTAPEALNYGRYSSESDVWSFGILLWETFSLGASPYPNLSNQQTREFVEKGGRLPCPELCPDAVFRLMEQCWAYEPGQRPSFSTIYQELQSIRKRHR
The target of assay [13] is Protein arginine N-methyltransferase 1 (Homo sapiens, UniProt Q99873). In words: Selectivity interaction (Methyltransferase screen (radiometric assays, panel of 8 PRMTs, 21 protein lysine methyltransferases, 3 DNA methyltransferases, and one RNA methyltransferase)) EUB0000272b PRMT1.
Chain of Protein arginine N-methyltransferase 1 (Q99873 whole entry, looked up): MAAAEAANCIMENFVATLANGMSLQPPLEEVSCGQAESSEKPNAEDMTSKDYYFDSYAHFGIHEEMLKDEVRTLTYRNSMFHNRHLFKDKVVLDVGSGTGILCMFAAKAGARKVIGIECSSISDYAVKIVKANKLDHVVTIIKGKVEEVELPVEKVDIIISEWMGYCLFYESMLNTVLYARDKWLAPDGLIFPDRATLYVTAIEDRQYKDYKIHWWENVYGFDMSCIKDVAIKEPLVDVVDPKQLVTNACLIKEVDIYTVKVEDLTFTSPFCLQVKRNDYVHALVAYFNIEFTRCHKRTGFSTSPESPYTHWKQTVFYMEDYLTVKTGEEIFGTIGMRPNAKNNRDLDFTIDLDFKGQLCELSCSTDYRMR

Chain of Mitogen-activated protein kinase kinase kinase 11 (Homo sapiens) (Q16584 whole entry, looked up): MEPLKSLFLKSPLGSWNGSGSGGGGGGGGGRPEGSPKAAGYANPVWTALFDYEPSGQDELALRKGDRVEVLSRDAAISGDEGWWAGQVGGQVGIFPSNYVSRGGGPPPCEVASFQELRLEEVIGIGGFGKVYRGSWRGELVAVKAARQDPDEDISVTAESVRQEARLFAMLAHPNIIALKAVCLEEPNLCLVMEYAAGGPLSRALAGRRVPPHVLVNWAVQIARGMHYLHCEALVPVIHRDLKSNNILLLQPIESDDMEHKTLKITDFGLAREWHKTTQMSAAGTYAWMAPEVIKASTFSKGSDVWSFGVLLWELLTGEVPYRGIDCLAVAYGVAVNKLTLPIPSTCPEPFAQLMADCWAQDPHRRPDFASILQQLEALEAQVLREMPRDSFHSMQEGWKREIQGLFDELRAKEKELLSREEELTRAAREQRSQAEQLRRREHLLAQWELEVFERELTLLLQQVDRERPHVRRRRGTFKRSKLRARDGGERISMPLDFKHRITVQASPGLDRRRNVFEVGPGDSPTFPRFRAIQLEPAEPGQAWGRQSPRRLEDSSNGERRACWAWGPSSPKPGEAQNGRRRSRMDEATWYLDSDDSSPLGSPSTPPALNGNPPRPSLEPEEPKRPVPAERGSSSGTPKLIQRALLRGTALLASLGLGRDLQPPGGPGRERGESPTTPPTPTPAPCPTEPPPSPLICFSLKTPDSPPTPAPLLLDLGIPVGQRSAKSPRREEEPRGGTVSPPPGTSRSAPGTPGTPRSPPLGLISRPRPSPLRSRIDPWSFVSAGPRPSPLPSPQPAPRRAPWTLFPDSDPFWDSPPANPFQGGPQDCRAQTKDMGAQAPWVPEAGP
Chain of Receptor-interacting serine/threonine-protein kinase 2 (O43353 whole entry): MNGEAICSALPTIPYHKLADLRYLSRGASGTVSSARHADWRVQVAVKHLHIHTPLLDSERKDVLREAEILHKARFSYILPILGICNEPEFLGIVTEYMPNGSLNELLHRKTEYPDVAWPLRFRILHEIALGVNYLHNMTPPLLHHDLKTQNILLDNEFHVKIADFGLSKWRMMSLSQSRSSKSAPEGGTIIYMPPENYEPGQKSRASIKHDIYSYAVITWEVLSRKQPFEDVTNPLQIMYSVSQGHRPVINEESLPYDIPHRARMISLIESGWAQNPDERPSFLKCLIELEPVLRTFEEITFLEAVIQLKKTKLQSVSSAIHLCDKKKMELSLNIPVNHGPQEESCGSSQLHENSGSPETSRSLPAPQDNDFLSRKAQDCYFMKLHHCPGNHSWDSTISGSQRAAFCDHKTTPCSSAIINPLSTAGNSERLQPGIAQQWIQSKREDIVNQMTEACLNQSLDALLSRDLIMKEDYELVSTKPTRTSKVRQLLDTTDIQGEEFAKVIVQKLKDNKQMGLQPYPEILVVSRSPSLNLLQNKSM
Chain of Serine/threonine-protein kinase 32B (Homo sapiens) (Q9NY57 whole entry): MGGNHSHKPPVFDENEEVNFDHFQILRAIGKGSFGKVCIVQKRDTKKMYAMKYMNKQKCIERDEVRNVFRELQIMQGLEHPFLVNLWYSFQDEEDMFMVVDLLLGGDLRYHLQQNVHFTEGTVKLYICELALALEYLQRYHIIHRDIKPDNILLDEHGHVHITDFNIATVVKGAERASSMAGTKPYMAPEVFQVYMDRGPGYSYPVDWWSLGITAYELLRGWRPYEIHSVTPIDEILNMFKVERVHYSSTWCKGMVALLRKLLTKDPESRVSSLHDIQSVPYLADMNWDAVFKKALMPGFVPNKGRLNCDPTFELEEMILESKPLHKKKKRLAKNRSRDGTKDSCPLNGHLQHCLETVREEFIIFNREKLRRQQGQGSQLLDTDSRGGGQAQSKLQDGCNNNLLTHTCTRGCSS

On to `Cn1cc(-n2cnc3c(NCc4nc5cc(Cl)c(Cl)cc5[nH]4)nc(N4CCOCC4)nc32)cn1`, for which the % of inhibition was -13.3% in assay [1], 4.54% in [2] and -8.62% in assay [3]. `Cc1cc([C@@H](C)Nc2ccccc2C(=O)O)c2nc(N3CCOCC3)cc(=O)n2c1` [AZD-6482] came in with a % of control in assay [4] of 100%.

In turn, `O=C(NOC[C@H](O)CO)c1ccc(F)c(F)c1Nc1ccc(I)cc1F` yielded a % of control in assay [5] of 85%. With `CC[C@@H](Nc1c(C#N)c(-c2ccc(-c3cccc(C)c3F)cc2)nc2cnccc12)C(=O)O` [BAY-091], the % of inhibition in assay [6] was found to be 56.8%. In the case of `CC[C@@H]1[C@H](F)C(=O)N[C@@H]1COc1nccc2cc(C(N)=O)c(OC)cc12` [ZIMLOVISERTIB], the results for the % of inhibition in assay [7], in assay [8] and in assay [9] were -18.7%, 11% and -38.8%, respectively. As for `COc1cc(Nc2nc(C)cc(-c3cnn4nc(OC)ccc34)n2)cc(C(F)(F)F)c1`, the % of control in [10] was 84%. As for `C=CC(=O)Nc1cc(-n2c(=O)ccc3cnc4ccc(-c5ccc(NS(C)(=O)=O)cc5)cc4c32)ccc1C`, the figures for the % of control in assay [11] (at 1 µM) and in assay [11] (at 10 µM) were 78% and 18%, respectively. As to `COCC(=O)NC/C=C/c1ccc2ncnc(Nc3ccc(Oc4ccc(C)nc4)c(C)c3)c2c1` [CP-724714], the % of control in assay [12] turned out to be 100%. As to `Cc1cc(C)cc([C@H]2c3cc(C)ccc3NC(=O)CN2C(=O)c2ccc(Br)s2)c1`, the % of activity was 98.7% in assay [13] (at 1 µM) and 101% in assay [13] (at 10 µM).
